Measurements from publication PMC12504763, “Antiproliferation, 3D-multicellular spheroid and VEGFR-2 inhibitory properties of spiroindolin-2-ones with phosphonate function” (Scientific Reports, 2025).
Read-outs that look alike come from different tables or passages of the source.

How the values were obtained:
[1] = system: MCF7 (breast) cancer cell line; assay: 2D-monolayer antiproliferation (MTT) against MCF7; type: cell-based, human; details: for IC50: Homo sapiens, MTT, 72 h incubation, MCF7 breast, read-out: IC50, μM ± SEM MCF7; for SI (selectivity index) MCF7: IC50 of RPE1 normal cell/IC50 of MCF7
[2] = system: HCT116 (colon) cancer cell line; assay: 2D-monolayer antiproliferation (MTT) against HCT116; type: cell-based, human; details: for IC50: Homo sapiens, HCT-116; for SI (selectivity index) HCT116: IC50 of RPE1 normal cell/IC50 of HCT116
VEGFR-2 [3] = biological target: T1, VEGFR-2 (Homo sapiens, UniProt P35968); assay: cell-based; type: cell-based; details: for inhibition at 10 µM: HCT-116, HCT116; for VEGFR-2 pg/mL ± SEM HCT116: at 10 μM, control 317.80 ± 3.5
T1 construct: endogenous in cells; host or cells: HCT116, PaCa2, MCF7 (human cancer cell lines, ATCC origin)
T1 sequence (P35968 20-1356): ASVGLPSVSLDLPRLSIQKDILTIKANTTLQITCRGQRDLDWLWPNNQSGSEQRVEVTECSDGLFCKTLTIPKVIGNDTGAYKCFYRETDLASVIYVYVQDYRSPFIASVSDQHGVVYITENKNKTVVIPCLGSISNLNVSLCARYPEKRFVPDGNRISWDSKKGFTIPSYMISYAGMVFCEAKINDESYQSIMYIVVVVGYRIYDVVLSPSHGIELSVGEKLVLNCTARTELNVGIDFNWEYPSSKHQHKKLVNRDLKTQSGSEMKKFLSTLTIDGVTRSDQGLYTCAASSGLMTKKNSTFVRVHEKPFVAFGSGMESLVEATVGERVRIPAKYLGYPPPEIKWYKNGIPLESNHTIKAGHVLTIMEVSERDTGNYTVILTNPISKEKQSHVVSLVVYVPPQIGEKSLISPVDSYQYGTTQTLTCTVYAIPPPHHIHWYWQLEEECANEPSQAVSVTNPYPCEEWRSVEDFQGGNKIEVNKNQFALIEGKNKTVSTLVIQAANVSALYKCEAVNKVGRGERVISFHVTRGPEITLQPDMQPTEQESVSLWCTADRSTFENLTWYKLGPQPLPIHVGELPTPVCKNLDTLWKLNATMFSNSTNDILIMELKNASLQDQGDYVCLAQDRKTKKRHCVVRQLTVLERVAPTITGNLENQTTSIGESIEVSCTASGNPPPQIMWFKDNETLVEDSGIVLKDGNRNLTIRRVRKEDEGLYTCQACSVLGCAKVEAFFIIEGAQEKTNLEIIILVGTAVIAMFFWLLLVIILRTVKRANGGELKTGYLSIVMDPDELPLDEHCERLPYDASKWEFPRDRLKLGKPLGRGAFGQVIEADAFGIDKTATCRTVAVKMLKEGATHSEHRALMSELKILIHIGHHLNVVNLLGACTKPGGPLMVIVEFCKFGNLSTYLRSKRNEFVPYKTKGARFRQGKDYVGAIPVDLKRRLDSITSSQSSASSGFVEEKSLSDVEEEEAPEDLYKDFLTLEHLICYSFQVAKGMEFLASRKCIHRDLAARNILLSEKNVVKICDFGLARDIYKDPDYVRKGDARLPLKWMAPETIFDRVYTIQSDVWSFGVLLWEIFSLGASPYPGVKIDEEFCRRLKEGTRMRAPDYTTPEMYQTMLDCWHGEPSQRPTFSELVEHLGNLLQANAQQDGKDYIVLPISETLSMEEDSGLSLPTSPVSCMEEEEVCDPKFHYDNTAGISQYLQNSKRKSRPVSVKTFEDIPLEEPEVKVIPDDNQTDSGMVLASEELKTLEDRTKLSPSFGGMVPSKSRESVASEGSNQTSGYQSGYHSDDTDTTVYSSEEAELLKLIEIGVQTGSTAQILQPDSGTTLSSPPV

TNF-α [4] = assay: TNF-α inhibitory properties (ELISA), MCF7 cell lysate; type: cell-based, human; details: at 10 μM; for TNF-α pg/mL (± SEM) MCF7: control 83.26 ± 1.1
VEGFR-2 [5] = biological target: T1, VEGFR-2; assay: cell-based; type: cell-based; details: for inhibition at 10 µM: MCF7; for VEGFR-2 pg/mL ± SEM MCF7: at 10 μM, control 258.70 ± 2.3
[6] = system: RPE1 (normal human immortalized retinal pigment epithelial cell line); assay: cells; type: cell-based; details: for IC50: Homo sapiens, RPE-1, MTT, normal RPE1 cell, read-out: IC50, μM ± SEM RPE1
COX-1 = biological target: T2, COX-1 (Ovis aries, UniProt P05979); assay: biochemical; details: 3 replicates, read-out: % Inhibition of COX-1 ± SEM
T2 construct: purchased BioVision incorporated USA K548–100
T2 sequence (P05979 25-600): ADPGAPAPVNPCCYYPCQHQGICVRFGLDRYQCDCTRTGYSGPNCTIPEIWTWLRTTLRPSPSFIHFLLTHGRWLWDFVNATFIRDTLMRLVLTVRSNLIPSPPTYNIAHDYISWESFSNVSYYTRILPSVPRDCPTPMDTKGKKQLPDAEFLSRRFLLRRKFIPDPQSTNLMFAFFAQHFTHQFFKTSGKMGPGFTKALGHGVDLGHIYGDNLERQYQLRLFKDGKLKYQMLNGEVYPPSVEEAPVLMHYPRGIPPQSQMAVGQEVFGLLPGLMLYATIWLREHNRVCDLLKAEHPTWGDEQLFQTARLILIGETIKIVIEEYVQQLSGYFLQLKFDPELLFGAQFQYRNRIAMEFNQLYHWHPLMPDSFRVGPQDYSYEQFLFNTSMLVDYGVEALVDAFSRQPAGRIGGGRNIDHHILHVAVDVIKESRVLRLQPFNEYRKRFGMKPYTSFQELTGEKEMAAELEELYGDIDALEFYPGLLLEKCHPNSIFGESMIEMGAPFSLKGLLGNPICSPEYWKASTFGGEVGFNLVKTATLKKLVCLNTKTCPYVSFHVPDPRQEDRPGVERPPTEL

VEGFR-2 [7] = biological target: T1, VEGFR-2; assay: cell-based; type: cell-based; details: for inhibition at 10 µM: PaCa-2, PaCa2; for VEGFR-2 pg/mL ± SEM PaCa2: at 10 μM, control 326.80 ± 1.9
TNF-α [8] = assay: TNF-α inhibitory properties (ELISA), PaCa2 cell lysate; type: cell-based, human; details: at 10 μM; for TNF-α pg/mL (± SEM) PaCa2: control 111.8 ± 2.0
COX-2 = biological target: T3, COX-2 (Homo sapiens, UniProt P35354); assay: biochemical; details: for inhibition at 10 µM: 3 replicates, read-out: % Inhibition of COX-2 ± SEM; for SI (selectivity index, COX-2/COX-1): at 10 μM
T3 construct: purchased BioVision incorporated USA K548–100
T3 sequence (P35354 18-604): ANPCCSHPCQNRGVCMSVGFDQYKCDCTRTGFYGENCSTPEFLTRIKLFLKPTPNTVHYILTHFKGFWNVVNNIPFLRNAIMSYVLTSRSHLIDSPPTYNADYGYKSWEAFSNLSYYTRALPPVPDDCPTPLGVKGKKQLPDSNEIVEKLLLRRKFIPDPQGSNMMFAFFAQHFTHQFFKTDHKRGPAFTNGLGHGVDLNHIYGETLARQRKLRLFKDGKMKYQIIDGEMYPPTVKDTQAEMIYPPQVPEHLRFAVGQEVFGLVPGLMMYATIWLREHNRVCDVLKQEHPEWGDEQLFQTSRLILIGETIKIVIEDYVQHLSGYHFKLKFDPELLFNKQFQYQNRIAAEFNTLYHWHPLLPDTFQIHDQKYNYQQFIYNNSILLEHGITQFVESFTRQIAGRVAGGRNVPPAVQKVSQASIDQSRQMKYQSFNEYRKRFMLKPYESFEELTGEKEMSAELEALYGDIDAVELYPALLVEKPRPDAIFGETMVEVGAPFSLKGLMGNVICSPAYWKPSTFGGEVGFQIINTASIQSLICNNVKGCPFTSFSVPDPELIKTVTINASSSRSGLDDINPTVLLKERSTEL

TNF-α [9] = assay: TNF-α inhibitory properties (ELISA), HCT116 cell lysate; type: cell-based, human; details: for TNF-α % inhibition HCT116 / TNF-α pg/mL (± SEM) HCT116: at 10 μM; for TNF-α pg/mL (± SEM) HCT116: control 95.74 ± 0.5
[10] = system: PaCa2 (pancreatic) cancer cell line; assay: 2D-monolayer antiproliferation (MTT) against PaCa2; type: cell-based, human; details: for 1/(observed property): 1/observed IC50 (μM), PaCa2; for IC50: Homo sapiens, PaCa-2, MTT, 72 h incubation, PaCa2 pancreatic, read-out: IC50, μM ± SEM PaCa2; for SI (selectivity index) PaCa2: IC50 of RPE1 normal cell/IC50 of PaCa2
[11] = system: A549 (lung) cancer cell line; assay: 2D-monolayer antiproliferation (MTT) against A549; type: cell-based, human; details: for IC50: Homo sapiens, MTT, 72 h incubation, A549 lung, read-out: IC50, μM ± SEM A549; for SI (selectivity index) A549: IC50 of RPE1 normal cell/IC50 of A549
[12] = MTT, 72 h incubation, HCT116 colon, read-out: IC50, μM ± SEM HCT116
[13] = log of observed IC50 (μM), HCT116, read-out: Log(observed property) (converted)

| SMILES | IC50 [1] [µM] | SI (selectivity index) MCF7 [1] | IC50 [2, 12] [µM] | IC50 [2, 13] [µM] | SI (selectivity index) HCT116 [2] | inhibition at 10 µM (VEGFR-2 [3]) [%] | VEGFR-2 pg/mL ± SEM HCT116 (VEGFR-2 [3]) [pg/mL] | TNF-α % inhibition MCF7 (TNF-α [4]) [%] | TNF-α pg/mL (± SEM) MCF7 (TNF-α [4]) [pg/mL] | inhibition at 10 µM (VEGFR-2 [5]) [%] | VEGFR-2 pg/mL ± SEM MCF7 (VEGFR-2 [5]) [pg/mL] | IC50 [6] [µM] | inhibition at 10 µM (COX-1) [%] | inhibition at 10 µM (VEGFR-2 [7]) [%] | VEGFR-2 pg/mL ± SEM PaCa2 (VEGFR-2 [7]) [pg/mL] | TNF-α % inhibition PaCa2 (TNF-α [8]) [%] | TNF-α pg/mL (± SEM) PaCa2 (TNF-α [8]) [pg/mL] | inhibition at 10 µM (COX-2) [%] | TNF-α pg/mL (± SEM) HCT116 (TNF-α [9]) [pg/mL] | IC50 [10] [µM] | further results |
| --- | --- | --- | --- | --- | --- | --- | --- | --- | --- | --- | --- | --- | --- | --- | --- | --- | --- | --- | --- | --- | --- |
| CCOP(=O)(OCC)N1C/C(=C\c2ccc(F)cc2)C(=O)C2(C1)C(c1ccc(F)cc1)CN(C)C21C(=O)Nc2ccc(C)cc21 (stereo not shown) [Compound 17g, Diethyl (E)-(5′′-(4-fluorobenzylidene)-4′-(4-fluorophenyl)-1′,5-dimethyl-2,4′′-dioxodispiro[indoline-3,2′-pyrrolidine-3′,3′′-piperidin]-1′′-yl)phosphonate] | 5.43 ± 0.152 | 3.5 | 5.01 ± 0.364 | 5.01 | 3.8 | 69 | 98.40 ± 1.2 | 0.3 | 83.0 ± 3.2 | 75 | 64.80 ± 0.5 | 19 ± 0.647 | 62.1 ± 3.1 | 77.7 | 72.80 ± 0.9 | 12.9 | 97.4 ± 3.6 | 51.8 ± 2.8 | 81.75 ± 2.1 | 6.09 ± 0.132 | TNF-α % inhibition HCT116 (TNF-α [9]): 14.6%; 1/(observed property) [10]: 0.1641; SI (selectivity index) PaCa2 [10]: 3.1; IC50 [11]: 8.15 ± 0.277 µM; SI (selectivity index) A549 [11]: 2.3 |
| CCOP(=O)(OCC)N1C/C(=C\c2ccc(Cl)cc2)C(=O)C2(C1)C(c1ccc(Cl)cc1)CN(C)C21C(=O)Nc2ccccc21 (stereo not shown) [Compound 17h, Diethyl (E)-[5′′-(4-chlorobenzylidene)-4′-(4-chlorophenyl)-1′-methyl-2,4′′-dioxodispiro[indoline-3,2′-pyrrolidine-3′,3′′-piperidin]-1′′-yl]phosphonate] | 4.07 ± 0.054 | 2.0 | 3.08 ± 0.165 | 3.08 | 2.6 | 83.7 | 51.74 ± 1.5 | 74.0 | 21.65 ± 3.1 | 79.6 | 52.70 ± 0.7 | 8.15 ± 0.675 | 53.5 ± 2.8 | 94.4 | 18.25 ± 0.6 | 76.3 | 26.5 ± 0.7 | 51.5 ± 3.1 | 18.45 ± 1.1 | 6.35 ± 0.17 | potency fold of the standard drug 5-fluorouracil ([2]; HCT116, ratio of IC50): 6.6 fold; potency fold of the standard drug sunitinib ([2]; HCT116, ratio of IC50): 3.1 fold; SI (selectivity index, COX-2/COX-1) (COX-2): 1.06; TNF-α inhibition fold of the standard ibuprofen (TNF-α [9]; 10 μM): 3.6 fold; TNF-α inhibition fold of the standard indomethacin (TNF-α [9]; 10 μM): 1.9 fold; TNF-α % inhibition HCT116 (TNF-α [9]): 80.7%; SI (selectivity index) PaCa2 [10]: 1.3; IC50 [11]: 4.15 ± 0.288 µM; SI (selectivity index) A549 [11]: 2.0 |
| CCOP(=O)(OCC)N1C/C(=C\c2ccc(Cl)cc2)C(=O)C2(C1)C(c1ccc(Cl)cc1)CN(C)C21C(=O)Nc2ccc(Cl)cc21 (stereo not shown) [Compound 17j, Diethyl (E)-[5-chloro-5′′-(4-chlorobenzylidene)-4′-(4-chlorophenyl)-1′-methyl-2,4′′-dioxodispiro[indoline-3,2′-pyrrolidine-3′,3′′-piperidin]-1′′-yl]phosphonate] | 3.87 ± 0.102 | > 12.9 | 3.487 ± 0.033 | 3.49 | > 14.3 | 80.3 | 62.50 ± 0.7 | 0.5 | 82.87 ± 4.5 | 82.7 | 44.80 ± 0.6 | > 50 | 48.9 ± 1.5 | 92.4 | 24.78 ± 0.3 | 11.9 | 98.5 ± 3.1 | 53.5 ± 2.3 | 81.78 ± 1.4 | 6.93 ± 0.337 | selectivity index (SI) ([6]; IC50 against RPE1 compared to the tested cancer cell line(s), in words): high selectivity index; SI (selectivity index, COX-2/COX-1) (COX-2): 1.05; TNF-α % inhibition HCT116 (TNF-α [9]): 14.6%; 1/(observed property) [10]: 0.1443; SI (selectivity index) PaCa2 [10]: > 7.2; IC50 [11]: 6.06 ± 0.157 µM; SI (selectivity index) A549 [11]: > 8.3 |
| CCOP(=O)(OCC)N1C/C(=C\c2ccc(Br)cc2)C(=O)C2(C1)C(c1ccc(Br)cc1)CN(C)C21C(=O)Nc2ccccc21 (stereo not shown) [Compound 17l, Diethyl (E)-[5′′-(4-bromobenzylidene)-4′-(4-bromophenyl)-1′-methyl-2,4′′-dioxodispiro[indoline-3,2′-pyrrolidine-3′,3′′-piperidin]-1′′-yl]phosphonate] | 4.85 ± 0.082 | 1.6 | 4.16 ± 0.129 | 4.16 | 1.9 | 73.5 | 84.20 ± 1.5 | 59.6 | 33.67 ± 1.7 | 71.6 | 73.50 ± 0.8 | 7.85 ± 0.284 | 61.6 ± 1.2 | 73.5 | 86.45 ± 1.2 | 66.3 | 37.63 ± 0.8 | 50.3 ± 2.3 | 27.34 ± 1.1 | 6.15 ± 0.413 | SI (selectivity index, COX-2/COX-1) (COX-2): 0.92; 1/(observed property) [10]: 0.1626; SI (selectivity index) PaCa2 [10]: 1.3; IC50 [11]: 7.28 ± 0.316 µM; SI (selectivity index) A549 [11]: 1.1 |
